Measured values: ChEMBL document CHEMBL1250549, “N-phenyl-N'-[4-(5H-pyrrolo[3,2-d]pyrimidin-4-yloxy)phenyl]ureas as novel inhibitors of VEGFR and FGFR kinases” (Bioorg Med Chem, 2010)
≈ marks a conversion by molar mass, not a printed value.

How the values were obtained:
[1] = target: Vascular endothelial growth factor receptor 2 (Homo sapiens, UniProt P35968); assay: Inhibition of His-tagged human VEGFR2 expressed in Sf9 cells
[2] = system: HUVEC; assay: Antiproliferative activity against HUVEC cells assessed as inhibition of FGF-stimulated proliferation after 5 days by WST-8 assay; settings: Homo sapiens, 120 h
[3] = Solubility of the compound at pH 6.8; type: physicochemical; settings: buffer
[4] = system: HUVEC; assay: Antiproliferative activity against HUVEC cells assessed as inhibition of VEGF-stimulated proliferation after 5 days by WST-8 assay; settings: Homo sapiens, 120 h
[5] = target: T1, Fibroblast growth factor receptor 1 (Homo sapiens, UniProt P11362); assay: Inhibition of FGFR1
[6] = target: T1, Fibroblast growth factor receptor 1; assay: Inhibition of His-tagged human FGFR1 expressed in Sf9 cells
[7] = Inhibition of PDGFR
[8] = target: Angiopoietin-1 receptor (Homo sapiens, UniProt Q02763); assay: Inhibition of Tie-2
[9] = Inhibition of VEGFR

T1 sequence (P11362 whole entry): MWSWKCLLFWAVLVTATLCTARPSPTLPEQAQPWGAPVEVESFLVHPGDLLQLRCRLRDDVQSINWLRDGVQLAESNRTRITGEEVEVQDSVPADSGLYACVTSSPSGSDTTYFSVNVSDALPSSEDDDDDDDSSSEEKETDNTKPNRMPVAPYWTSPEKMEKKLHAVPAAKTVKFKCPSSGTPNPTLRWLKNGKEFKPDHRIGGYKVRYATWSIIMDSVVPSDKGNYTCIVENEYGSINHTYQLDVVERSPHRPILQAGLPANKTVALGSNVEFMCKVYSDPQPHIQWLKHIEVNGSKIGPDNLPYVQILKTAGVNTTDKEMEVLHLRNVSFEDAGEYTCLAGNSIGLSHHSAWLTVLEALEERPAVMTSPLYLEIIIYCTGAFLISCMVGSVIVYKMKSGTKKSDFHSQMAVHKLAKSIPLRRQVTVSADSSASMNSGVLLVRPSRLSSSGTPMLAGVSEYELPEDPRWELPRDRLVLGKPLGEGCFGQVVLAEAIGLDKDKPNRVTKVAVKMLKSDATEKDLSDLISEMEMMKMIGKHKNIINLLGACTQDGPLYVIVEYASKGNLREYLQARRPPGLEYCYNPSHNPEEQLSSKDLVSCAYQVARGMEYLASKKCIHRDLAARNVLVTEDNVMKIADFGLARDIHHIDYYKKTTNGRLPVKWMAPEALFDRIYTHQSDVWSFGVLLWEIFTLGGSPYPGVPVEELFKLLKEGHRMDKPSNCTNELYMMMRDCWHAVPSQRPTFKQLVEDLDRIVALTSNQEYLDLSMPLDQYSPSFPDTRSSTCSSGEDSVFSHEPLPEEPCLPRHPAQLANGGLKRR
Sequence of Vascular endothelial growth factor receptor 2 (P35968 whole entry): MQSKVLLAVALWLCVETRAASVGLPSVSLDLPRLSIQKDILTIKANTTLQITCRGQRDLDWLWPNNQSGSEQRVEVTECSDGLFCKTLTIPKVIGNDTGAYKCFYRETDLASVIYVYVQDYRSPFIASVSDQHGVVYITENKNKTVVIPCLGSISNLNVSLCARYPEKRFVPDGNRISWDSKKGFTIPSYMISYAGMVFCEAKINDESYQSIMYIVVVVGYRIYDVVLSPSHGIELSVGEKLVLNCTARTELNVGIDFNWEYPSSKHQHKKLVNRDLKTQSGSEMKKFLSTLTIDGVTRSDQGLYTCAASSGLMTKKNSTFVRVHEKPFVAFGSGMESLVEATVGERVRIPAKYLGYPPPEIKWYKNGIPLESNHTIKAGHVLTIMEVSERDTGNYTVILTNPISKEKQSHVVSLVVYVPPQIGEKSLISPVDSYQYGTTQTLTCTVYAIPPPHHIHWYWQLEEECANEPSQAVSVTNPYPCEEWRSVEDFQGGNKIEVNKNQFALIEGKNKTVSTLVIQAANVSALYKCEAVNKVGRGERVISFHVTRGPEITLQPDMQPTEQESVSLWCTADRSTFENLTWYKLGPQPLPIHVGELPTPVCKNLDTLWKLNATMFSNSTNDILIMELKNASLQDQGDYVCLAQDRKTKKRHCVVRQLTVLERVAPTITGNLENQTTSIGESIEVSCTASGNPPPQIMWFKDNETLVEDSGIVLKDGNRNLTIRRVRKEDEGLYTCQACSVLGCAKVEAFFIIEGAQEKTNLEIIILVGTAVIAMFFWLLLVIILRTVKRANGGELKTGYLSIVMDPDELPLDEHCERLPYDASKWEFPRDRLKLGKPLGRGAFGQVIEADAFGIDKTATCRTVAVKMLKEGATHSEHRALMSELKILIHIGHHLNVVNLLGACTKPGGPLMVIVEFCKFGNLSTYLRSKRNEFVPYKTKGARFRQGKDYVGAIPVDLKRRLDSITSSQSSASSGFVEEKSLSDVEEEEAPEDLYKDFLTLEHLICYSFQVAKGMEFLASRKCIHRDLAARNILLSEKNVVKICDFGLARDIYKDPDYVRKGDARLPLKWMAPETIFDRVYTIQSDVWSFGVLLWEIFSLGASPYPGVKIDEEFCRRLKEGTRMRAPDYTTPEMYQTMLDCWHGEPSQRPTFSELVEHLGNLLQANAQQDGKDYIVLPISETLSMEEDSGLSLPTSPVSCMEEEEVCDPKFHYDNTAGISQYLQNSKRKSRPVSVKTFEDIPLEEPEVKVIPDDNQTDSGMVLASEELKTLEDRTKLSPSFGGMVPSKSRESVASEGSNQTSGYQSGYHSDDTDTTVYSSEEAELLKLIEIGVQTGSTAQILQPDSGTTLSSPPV
Sequence of Angiopoietin-1 receptor (Q02763 whole entry): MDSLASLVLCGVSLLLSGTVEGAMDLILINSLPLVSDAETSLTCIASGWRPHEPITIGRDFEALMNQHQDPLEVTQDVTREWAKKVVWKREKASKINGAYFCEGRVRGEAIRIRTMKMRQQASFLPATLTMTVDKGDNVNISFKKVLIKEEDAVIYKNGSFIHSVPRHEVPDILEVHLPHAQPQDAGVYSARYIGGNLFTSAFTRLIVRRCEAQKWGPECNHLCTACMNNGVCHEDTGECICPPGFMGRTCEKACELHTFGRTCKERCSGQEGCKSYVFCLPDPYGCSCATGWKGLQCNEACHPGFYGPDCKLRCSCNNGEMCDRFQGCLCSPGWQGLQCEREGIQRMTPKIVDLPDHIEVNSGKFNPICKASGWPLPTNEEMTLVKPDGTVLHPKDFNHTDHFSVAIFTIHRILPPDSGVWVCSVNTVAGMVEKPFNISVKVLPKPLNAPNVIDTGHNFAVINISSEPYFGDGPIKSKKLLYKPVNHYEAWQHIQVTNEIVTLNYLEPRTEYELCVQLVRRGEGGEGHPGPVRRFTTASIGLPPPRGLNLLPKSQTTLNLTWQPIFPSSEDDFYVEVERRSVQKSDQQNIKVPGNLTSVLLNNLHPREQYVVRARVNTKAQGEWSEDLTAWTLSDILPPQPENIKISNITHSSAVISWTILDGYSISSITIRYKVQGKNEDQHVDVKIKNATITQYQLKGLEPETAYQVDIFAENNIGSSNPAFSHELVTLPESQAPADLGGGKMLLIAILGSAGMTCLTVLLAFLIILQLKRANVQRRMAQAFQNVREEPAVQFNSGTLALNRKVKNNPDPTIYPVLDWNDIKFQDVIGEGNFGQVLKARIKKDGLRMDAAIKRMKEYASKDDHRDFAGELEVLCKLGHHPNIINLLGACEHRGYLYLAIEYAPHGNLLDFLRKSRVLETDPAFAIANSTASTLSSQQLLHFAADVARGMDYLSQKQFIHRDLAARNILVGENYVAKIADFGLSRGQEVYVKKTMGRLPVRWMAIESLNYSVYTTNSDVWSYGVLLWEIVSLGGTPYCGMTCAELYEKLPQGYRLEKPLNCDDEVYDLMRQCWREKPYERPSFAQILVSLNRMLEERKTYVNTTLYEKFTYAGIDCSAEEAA

SMILES	IC50 [1] [nM]	other results
CN1CCC(Oc2ccc(NC(=O)Nc3ccc(Oc4ncnc5ccn(C)c45)cc3Cl)cc2C(F)(F)F)CC1	12	
O=C(Nc1cccc(C(F)(F)F)c1)Nc1ccc(Oc2ncnc3ccn(CCOCCO)c23)cc1Cl	2.7	
COCc1cc2ncnc(Oc3ccc(NC(=O)Nc4cccc(C(F)(F)F)c4)c(Cl)c3)c2n1C	14	
Cn1ccc2ncnc(Oc3ccc(NC(=O)Nc4cccc(C(F)(F)F)c4)c(Cl)c3)c21		IC50 [2]: 230 nM; solubility [3]: 0.09 µg/mL (≈ 0.195 µM)
Cn1ccc2ncnc(Oc3ccc(NC(=O)Nc4cccc(C(F)(F)F)c4)c(F)c3)c21		IC50 [5]: > 10000 nM; IC50 [6]: > 10000 nM; IC50 [7]: < 100 nM; IC50 [8]: < 100 nM; IC50 [9]: < 100 nM
Cn1ccc2ncnc(Oc3ccc(NC(=O)Nc4cc(N5CCOCC5)cc(C(F)(F)F)c4)c(Cl)c3)c21	60	
Cn1ccc2ncnc(Oc3ccc(NC(=O)Nc4cc(C(F)(F)F)ccn4)c(Cl)c3)c21	2.7	
COCCn1ccc2ncnc(Oc3ccc(NC(=O)Nc4cccc(C(F)(F)F)c4)c(Cl)c3)c21	9	
O=C(Nc1cccc(C(F)(F)F)c1)Nc1ccc(Oc2ncnc3ccn(CCO)c23)cc1Cl	4	
Cn1ccc2ncnc(Oc3ccc(NC(=O)Nc4ccccn4)c(Cl)c3)c21	210	IC50 [6]: > 10000 nM
Cn1ccc2ncnc(Oc3ccc(NC(=O)Nc4cnn(CC(F)(F)F)c4)c(Cl)c3)c21	4	
Cn1ccc2ncnc(Oc3ccc(NC(=O)Nc4cc(CN5CCOCC5)cc(C(F)(F)F)c4)c(Cl)c3)c21	23	
COc1ccc(NC(=O)Nc2ccc(Oc3ncnc4ccn(C)c34)cc2Cl)cc1C(F)(F)F	9.4	
Cn1ccc2ncnc(Oc3ccc(NC(=O)Nc4ccncc4)c(Cl)c3)c21	650	IC50 [6]: > 10000 nM
Cn1c(C(C)(C)O)cc2ncnc(Oc3ccc(NC(=O)Nc4cccc(C(F)(F)F)c4)c(Cl)c3)c21	18	
Cn1ccc2ncnc(Oc3ccc(NC(=O)Nc4cnn(C(C)(C)C)c4)c(Cl)c3)c21	7.6	
Cn1ccc2ncnc(Oc3ccc(NC(=O)Nc4ccc(N5CCOCC5)c(C(F)(F)F)c4)c(Cl)c3)c21	61	
Cn1ccc2ncnc(Oc3ccc(NC(=O)Nc4cccnc4)c(Cl)c3)c21	230	IC50 [6]: > 10000 nM

Now from value to compound, other results behind:

IC50 [1] [nM]	SMILES	other results
9.3	CN1CCN(Cc2ccc(NC(=O)Nc3ccc(Oc4ncnc5ccn(C)c45)cc3Cl)cc2C(F)(F)F)CC1	IC50 [2]: 20 nM; solubility [3]: 19 µg/mL (≈ 33.1 µM); IC50 [4]: 38 nM
2.9	Cn1ccc2ncnc(Oc3ccc(NC(=O)Nc4cncc(C(F)(F)F)c4)c(Cl)c3)c21	
11	CN1CCN(Cc2cc(NC(=O)Nc3ccc(Oc4ncnc5ccn(C)c45)cc3Cl)cc(C(F)(F)F)c2)CC1	
9.7	Cn1c(CO)cc2ncnc(Oc3ccc(NC(=O)Nc4cccc(C(F)(F)F)c4)c(Cl)c3)c21	
3.8	Cn1ccc2ncnc(Oc3ccc(NC(=O)Nc4ccnc(C(F)(F)F)c4)c(Cl)c3)c21	
19	Cn1nc(C(C)(C)C)cc1NC(=O)Nc1ccc(Oc2ncnc3ccn(C)c23)cc1Cl	
19	Cn1ccc2ncnc(Oc3ccc(NC(=O)Nc4ccc(CN5CCOCC5)c(C(F)(F)F)c4)c(Cl)c3)c21	
8.9	Cn1ccc2ncnc(Oc3ccc(NC(=O)Nc4cc(C(C)(C)C)on4)c(Cl)c3)c21	
20	COc1cc(NC(=O)Nc2ccc(Oc3ncnc4ccn(C)c34)cc2Cl)cc(C(F)(F)F)c1	
